# Counter-ions that a name gives are not always drawn.
# Tested on: murine thymus cells
# Assay: in vitro stimulation of lymphocyte proliferation of murine thymus cells cultured in the presence of Concanavalin A (lymphocyte stimulation assay, LSA)
# Assay type: cell-based, mouse (male C57B1/6)
# Conditions: Con A-stimulated thymus cells, 48 h at 37° C., highest 3H-thymidine cpm of eight concentrations 0.02 to 50 μg/ml, hydrohalide salts
# From the text: The immune regulant activity of the compounds of the present invention may be determined by such pharmacological tests as the stimulation in vitro of lymphocyte proliferation of murine thymus cells cultured in the presence of Concanavalin A (Con A), employing the general evaluation procedure of V. J. Merluzzi et. al., see Journal of Clinical and Experimental Immunology, Volume 22, page 486 (1975).
# The immune regulant activity of the aminothiazoles described in Examples 2, 3, 4, 6, 7, 8, 10 and 11 was evaluated by determining their ability to stimulate, in vitro the lymphocyte proliferation of murine thymus cells cultured in the presence of Concanavalin A (Con A) by employing the procedure of V. J. Merluzzi et. al., as essentially described in the Journal of Clinical and Experimental Immunology, Vol. 22, p. 486 (1975). The cells were derived from male C57B1/6 mice of from 6-8 weeks age, purchased from the Jackson Laboratories of Bar Harbor, Maine and the Con A was obtained from Sigma Chemicals of St. Louis, Mo. Each cell culture (consisting of 0.10 ml thymus cells stock solution, 0.05 ml of Con A stock solution and 0.05 ml of drug solution) was performed in quadruplicate and cellular proliferation was measured, after 48 hours of incubation at 37° C., by pulsing each culture with ^3 H-thymidine (0.01 ml of specific activity 1.9 C/mM, obtained from Schwarz-Mann, Inc. of Orangeburg, N.Y.) and then determining the incorporation of ^3 H-thymidine into cellular deoxyribonucleic acid (DNA) by an assessment of radioactivity using a liquid scintillation counter. […] These quadruplicate determinations are employed at eight different concentrations of drugs in the range 0.02 to 50 μg/ml. The highest cpm value obtained is employed in the scoring system.
row,Structure (SMILES),LSA activity
1,"Br.Cc1sc(NCCc2ccccc2)nc1-c1ccccc1 [Example 3, 2-phenethylamino-4-phenyl-5-methylthiazole hydrobromide]","+++ (those having an activity (27,000±1,000 cpm) greater than levamisole were scored as +++)"
2,"c1ccc(-c2csc(NCc3cccs3)n2)cc1 [Example 6, 2-thenylamino-4-phenyl-thiazole hydrobromide]","+++ (those having an activity (27,000±1,000 cpm) greater than levamisole were scored as +++)"
3,"Fc1ccc(-c2csc(NCc3cccs3)n2)cc1 [Example 7, 2-thenylamino-4(p-fluorophenyl)-thiazole hydrochloride]","+++ (those having an activity (27,000±1,000 cpm) greater than levamisole were scored as +++)"
4,"Br.Cc1sc(NCc2ccco2)nc1-c1ccccc1 [Example 10, 2-furfurylamino-5-methyl-4-phenyl-thiazole hydrobromide]","+++ (those having an activity (27,000±1,000 cpm) greater than levamisole were scored as +++)"
5,"Br.c1ccc(CCNc2nc(-c3ccccc3)cs2)cc1 [Example 2, 2-phenethylamino-4-phenyl-thiazole hydrobromide]","+++ (those having an activity (27,000±1,000 cpm) greater than levamisole were scored as +++)"

# Same assay, conditions: levamisole standard; drug level with maximum activity, Con A-stimulated thymus cells, 48 h at 37° C.
row,Structure (SMILES),average counts per minute of 3H-thymidine incorporated (LSA activity)
1,"c1ccc([C@H]2CN3CCSC3=N2)cc1 [levamisole, reference compound]","22,000±900 cpm"

# Tested on: carrageenin-induced rat foot edema
# Assay: carrageenin-induced rat foot edema test
# Assay type: in vivo, rat (male albino)
# Conditions: 33 mg/kg, p.o., 3 hours after carrageenin, vs non-drug treated control
# Procedure: The activity of the compounds of the present invention as anti-inflammatoryagents may be determined by pharmacological tests, for example the standard carrageenin-induced rat foot edema test using the general procedure described by C. A. Winter et. al., see Proceedings of the Society of Experimental Biology in Medicine, Volume 111, page 544 (1962). In this test, anti-inflammatory activity is determined as the percent inhibition of edema formation in the hind paw of male albino rats (generally weighing about 150 to 190 grams) in response to a sub-plantar injection of carrageenin. The carrageenin is injected as a 1% aqueous suspension 1 hour after oral administration of the drug, which is normally given in the form of an aqueous solution or suspension. Edema formation is then assessed 3 hours after the carrageenin injection by comparing the initial volume of the injected paw and the volume after a 3 hour period. The increase in volume 3 hours after carrageenin injection constitutes the individual response. Compounds are considered active if the response between the drug-treated animals (6 rats per group) and the control group, i.e. the animals receiving the vehicle alone, is found to be significant on comparison with the results afforded by standard compounds like acetylsalicyclic acid at 100 mg/kg or phenylbutazone at 33 mg/kg, both by the oral route of administration.
# The anti-inflammatory activity of aminothiazoles of this invention was determined using the standard carrageenin-induced rat foot edema test, according to the procedure essentially as described by C. A. Winter etl. al., and reported in the Proceedings of the Society for Experimental Biology and Medicine, Vol. 111, p. 544 (1962). The compounds were administered orally in the form of their previously reported hydrohalide salts at a dose level of 33 mg/kg. The results obtained in this manner are presented in the table below in terms of the percent inhibition of edema formation afforded by each test compound as compared to the non-drug treated control (i.e., aqueous solution with no compound): […]
row,Structure (SMILES),% Inhibition of edema [%]
1,"Fc1ccc(-c2csc(NCc3cccs3)n2)cc1 [2-thenyl, 4-fluorophenyl, hydrogen, HBr, 2-thenylamino-4-(p-fluorophenyl)-thiazole]",49
2,COc1ccc(CCNc2nc(-c3ccc(F)cc3)cs2)cc1 [2-(p-methoxyphenethylamino)-4-(p-fluorophenyl)-thiazole],29
3,"Br.c1ccc(CCNc2nc(-c3ccccc3)cs2)cc1 [Example 2, 2-phenethylamino-4-phenyl-thiazole hydrobromide]",47
